Laboratory results taken from US12582652B2, “3-(ethoxydifluoromethyl)-6-(5-fluoro-6-(2,2,2-trifluoroethoxy)pyridin-3-yl)-[1,2,4]triazolo[4,3-a]pyrazine as an ion channel modulator” (Praxis Precision Medicines, Inc., priority 2022, dated 2026).
“Also recorded” adds a separate entry of the source.

Tests used:
[1] = target: T1, hNaV1.6-N1768D (Homo sapiens, UniProt Q9UQD0, N1768D); assay: Persistent INa expressed by DEE mutant channel, patch clamp; assay type: cell-based; settings: hNaV1.6-N1768D DEE mutant
T1 construct: expressed in transfected cells

[2] = test system: hNaV1.1, hNaV1.2, hNaV1.5, rNaV1.2, dNaV1.2, mNaV1.6, rNaV1.6; assay: Persistent INa of other NaV isoforms and orthologs, patch clamp; settings: read-out: persistent INa IC50 values across isoforms and orthologs
Description: Persistent INa was activated from resting/closed channel conformations by maintaining a hyperpolarized holding potential (−120 mV).

[3] = test system: Hcn1 DEE mouse model; assay: Pentylenetetrazole (PTZ) induced seizure, Hcn1 model; assay type: in vivo
Description: Pentylenetetrazole (PTZ), a GABA receptor antagonist, can be used to create a common, chemically-induced seizure model, a model of generalized seizure.
Mice were acclimated to experimental area for minimum 30 minutes before experimentation. All experiments were performed between 10:00 am and 12:30 pm. The treatment compounds and PTZ were always prepared fresh.
Mice were randomly assigned either to different doses of Compound 1 (10 mg/kg, 1 mg/kg, or 0.1 mg/kg) or a vehicle control containing 0.5% methylcellulose and 0.2% tween 80, and dosed via oral gavage (p.o). Compound 1 and the vehicle control were administered 60 minutes before the injection of PTZ.
PTZ (100 mg/kg) was dissolved in saline and administered subcutaneously (s.c) to the experimental mice. The latency to full tonic-clonic seizure with hind limb extension was measured. The animals were sacrificed either at the time of hind limb extension or 40 minutes after PTZ administration if no hind limb extension was recorded.
Data were analyzed using a Mantel-Cox log-rank test. Brain tissue and plasma were collected from some mice for each dose of Compound 1 at the PTZ endpoint for PK analysis.

[4] = target: T2, human NaV1.6 (Homo sapiens, UniProt Q9UQD0); assay: Peak INa tonic block (TB), PatchXpress patch clamp; assay type: cell-based
T2 construct: stably expressing either human NaV1.6 (NP_055006); expressed in transfected cells
Description: (§1) HEK-293 cell lines stably expressing either human NaV1.6 (NP_055006), mouse NaV1.6 (NP_035453.2), or rat NaV1.6 (NP_062139) were used. All cells were seeded at 2×10^6 cells per Nunc T75 flask for 2 days in culture. At time of harvest for assays, the cell counts were approximately 6×10^6 cells. Cells were washed (1×) in DPBS (Hyclone, Cat #SH30028.03) for approximately 30 seconds. 1 mL of 1×0.05% Trypsin-EDTA (GIBCO Cat #25300-054) was added and swirled around to cover the bottom of the flask and was allowed to sit on the cells for approximately 4 minutes (±90% of the cells were lifted by light tapping of the flask). 10 mL of warmed media (DMEM high glucose media Hyclone, SH30022.02 supplemented with 10% Fetal Bovine Serum, 2 mM Sodium Pyruvate, 10 mM HEPES and 400 μg/mL G418) was added to inactivate the trypsin. Cells were triturated until a single cell suspension was achieved. A cell count was performed and cells were aliquoted into a 250 ml centrifuge tube at a concentration of 2×10^5/mL in +30 ml of prewarmed media. The 250 mL centrifuge tube was placed on a rocker in an incubator set at 28° C. and gently rocked for approximately 1 hour to allow cells to recover. Cell aliquots of 5 mL (1×10^6 cells) were placed in a 15 mL centrifuge tube and spun at 100×g for 2 minutes. Supernatant was removed leaving a cell pellet. 100 μL of external recording solution was added to the pellet and triturated 20 times to achieve a single cell suspension and then transferred to a 1.5 mL tube for placement in the PatchXpress® (Molecular Devices).
(§2) Compound 1 was provided as powder and prepared as 10 mM DMSO stocks in 1 dram glass vials prior to assay. Immediately prior to assay, Compound 1 was diluted with DMSO to 300×, the designated final assay concentration. Assay dilutions (1× concentration) were prepared by pipetting 3 μL of diluted Compound 1 into 897 μL of extracellular solution in a 1 mL glass shell vial. Vials were capped and vortexed until initiation of the PatchXpress® (Molecular Devices) recording protocol.
(§3) The same intracellular recording solution was used for the persistent and peak INa assays, which contained: 135 mM CsF, 10 mM CsCl, 5 mM NaCl, 10 mM HEPES, 5 mM EGTA at a pH of 7.4 (adjusted with CsOH) and a measured osmolarity of 298 mOsm (adjusted with mannitol). For the persistent INa assay, the external recording solution contained: 135 mM NaCl, 5.4 mM KCl, 5 mM glucose, 2 mM CaCl2), 1 mM MgCl2, 10 mM HEPES, and 200 nM ATX-II (sea anemone toxin, Alomone Labs; Jerusalem, Israel) at a pH of 7.4 (adjusted with NaOH) and a measured osmolarity of 300 mOsm (adjusted with mannitol). For the peak INa assays, the external recording solution contained: 100 mM NaCl, 35 mM NMDG, 5.4 mM KCl, 5 mM glucose, 2 mM CaCl2), 1 mM MgCl2, and 10 mM HEPES at a pH of 7.4 (adjusted with NaOH) and a measured osmolarity of 300 mOsm (adjusted with mannitol).
(§4) All studies were performed using the PatchXpress® (Molecular Devices) automated patch clamp platform (Molecular Devices) using the whole cell configuration. Recordings were performed at room temperature. Data were collected using Patch Commander software (Molecular Devices) and processed using DataXpress 2.0 (Molecular Devices). Cell acceptance criteria were continuously monitored by custom scripts during the recording. Acceptance criteria for all assays were: baseline peak INa>800 pA, Rseal>200 MΩ, and, where appropriate, persistent INa>100 pA. Compensation was 50% and leak subtraction was not used. Currents were filtered at 5 kHz and digitized at 32.5 kHz. Raccess and Rseal were monitored throughout the recording and cells with Raccess>10 MΩ or Rseal<200 MΩ were terminated automatically by script.
Tonic Block (TB): Tonic Block (TB) protocols used low stimulation rates (about 0.1 Hz) and negative potentials (−120 mV) to keep channels in closed (resting) states. Pharmacology was measured during peak INa in response to step to 0 mV. No leak subtraction was used.

[5] = test system: male CD-1 mice; assay: Spontaneous locomotor activity (sLMA) test
Description: Male CD-1 mice, 6-weeks old, were obtained from Vital River (Beijing, China). The average body weight was 25-35 g at the time the experiments were carried out. The mice were housed in groups of 3-5 under controlled conditions (temperature: 20-26° C.; humidity: 40-70%; air exchange rate: 10-15 cycles/hour; 12:12 light-dark cycle with lights on at 5:00 a.m.). Food and water were available ad libitum. The mice were acclimated to these conditions for 6 days before the start of the studies.
Dosing solutions were prepared on each experiment day. […] All solutions were protected from light. Samples from dosing solutions were stored at 4° C. Both compound and vehicle were dosed at 10 ml/kg.
The sLMA test was carried out over two days. 5 of 10 mice from each treatment group were tested on each day. All animals were marked on the tail with a permanent marker and weighed. Mice were randomly assigned into one of the four treatment groups. Animals were acclimated to the test room at least 30 minutes before the start of the experiment.
Possible side effects, such as overt sedation, were recorded just before the start of the sLMA test.
Each mouse was automatically tracked with overhead cameras using a 1-minute sampling window in an isolated chamber. Spontaneous locomotor activity was then analyzed offline using the Animal Behavior Video Tracking Analysis System (Ji Liang Software Technology Co., Ltd., Shanghai, China).
Locomotor status was defined as >2 mm of movement in every 200 ms (Frame-rate recorded was 20 frames/second. Locomotor status was identified in every 4 frame-to-frame interval. The accumulated shift of tracking spots that exceeded 2 mm in every 4 frame intervals was identified as a locomotor epoch). Traveling distance was calculated automatically from all the locomotion epochs and analyzed.
All mice were anesthetized with CO2. Then, terminal plasma and brain tissue samples were collected from animals in the drug treatment groups. 500 μL whole blood was collected via cardiac puncture and placed in tubes with 10 μL EDTAK2. The tubes were then placed in wet ice until centrifuged at 2000 g for 5 minutes at 4° C. The supernatant plasma was pipetted into Eppendorf tubes.
All statistical analyses were conducted using GraphPad Prism 7.0. Data are presented as mean±s.e.m., and p<0.05 was regarded as statistically significant.
Dose-response and concentration-response curves for plasma and brain were fitted for each end-point using GraphPad Prism. From these fitted curves, TD50 and TC50 values were calculated.

[6] = target: T2, human NaV1.6; assay: Peak INa voltage-dependent block (VDB), PatchXpress patch clamp; assay type: cell-based
Description: as §1, §2, §3, §4
Voltage Dependent Block (VDB): VDB protocols used a depolarized voltage to keep channels in half-inactivated (resting) states. This allowed equilibrium binding and accurate determination of isoform selectivity (in the absence of biological features).

[7] = test system: CA1 pyramidal neurons; assay: Intrinsic excitability (evoked action potentials) of CA1 pyramidal neurons, brain slice whole-cell current clamp; assay type: cell-based, mouse
Description: Three hundred micrometer coronal hippocampal slices were cut on a vibratome (VT1200; Leica) for whole-cell patch-clamp experiments. Slices were incubated for a minimum of 1 hour in the incubation solution at room temperature before patching.
Brain slices were transferred to a submerged recording chamber on an upright microscope (Slicescope Pro 1000; Scientifica) and were perfused (2 ml/min) with the extracellular artificial cerebral spinal fluid (aCSF) recording solution at 32° C.
CA1 pyramidal neurons were identified visually in the stratum pyramidale of the CA1 region of the hippocampus, using infrared-oblique illumination microscopy with a 40× water-immersion objective (Olympus) using a camera (Dage IR-2000; Dage). […] Patch-clamp recordings were made using a micromanipulator (MPC-200; Sutter) and Axon Multiclamp 700B patch-clamp amplifier (MDS). Data were acquired using pClamp software (v10; MDS) using a sampling rate of 50 kHz and low pass Bessel filtered at 10 kHz (Digidata 1550b; Axon).
Studies were performed using whole-cell current clamp recording mode. […] Once the whole-cell configuration was obtained for 2 minutes, a holding current was injected to maintain a membrane potential of approximately −70 mV. Current steps (injected current of between −60 to 340 pA in 20 pA steps, 400 ms duration) (FIG. 1B)) were applied in current clamp mode. The amplitude of current injections was relative to the holding current. A test pulse (−5 pA amplitude, 50 ms duration) was applied 650 ms after the termination of the main current step. The inter sweep interval was 5 seconds (0.2 Hz). To be included in the study, a cell had to have an access resistance of less than 20 M2 and a holding current of less than −200 pA. Once baseline action potential firing was determined in the presence of the extracellular aCSF recording solution (baseline), Compound 1 (300 nM or 3 μM) was washed onto the slice for 5 minutes before repeating the action potential generating protocol (FIG. 1B).
Data were analyzed using Axograph X software. Individual action potentials were identified and counted using a +50 mV amplitude threshold relative to pre-event baseline. The frequencies of action potentials generated were plotted for each of the current injections to create an input-frequency relationship for each cell. Action potential amplitudes were determined relative to the pre-event baseline at the +200 pA current injection step for each cell. Once an action potential count had less than three cells contributing to the averaged amplitude, it was excluded from analysis. For statistical comparisons between groups, the total number of action potentials fired per cell was calculated. Statistical analysis was performed using GraphPad Prism software (v8). […]

T2 sequence (Q9UQD0 whole entry): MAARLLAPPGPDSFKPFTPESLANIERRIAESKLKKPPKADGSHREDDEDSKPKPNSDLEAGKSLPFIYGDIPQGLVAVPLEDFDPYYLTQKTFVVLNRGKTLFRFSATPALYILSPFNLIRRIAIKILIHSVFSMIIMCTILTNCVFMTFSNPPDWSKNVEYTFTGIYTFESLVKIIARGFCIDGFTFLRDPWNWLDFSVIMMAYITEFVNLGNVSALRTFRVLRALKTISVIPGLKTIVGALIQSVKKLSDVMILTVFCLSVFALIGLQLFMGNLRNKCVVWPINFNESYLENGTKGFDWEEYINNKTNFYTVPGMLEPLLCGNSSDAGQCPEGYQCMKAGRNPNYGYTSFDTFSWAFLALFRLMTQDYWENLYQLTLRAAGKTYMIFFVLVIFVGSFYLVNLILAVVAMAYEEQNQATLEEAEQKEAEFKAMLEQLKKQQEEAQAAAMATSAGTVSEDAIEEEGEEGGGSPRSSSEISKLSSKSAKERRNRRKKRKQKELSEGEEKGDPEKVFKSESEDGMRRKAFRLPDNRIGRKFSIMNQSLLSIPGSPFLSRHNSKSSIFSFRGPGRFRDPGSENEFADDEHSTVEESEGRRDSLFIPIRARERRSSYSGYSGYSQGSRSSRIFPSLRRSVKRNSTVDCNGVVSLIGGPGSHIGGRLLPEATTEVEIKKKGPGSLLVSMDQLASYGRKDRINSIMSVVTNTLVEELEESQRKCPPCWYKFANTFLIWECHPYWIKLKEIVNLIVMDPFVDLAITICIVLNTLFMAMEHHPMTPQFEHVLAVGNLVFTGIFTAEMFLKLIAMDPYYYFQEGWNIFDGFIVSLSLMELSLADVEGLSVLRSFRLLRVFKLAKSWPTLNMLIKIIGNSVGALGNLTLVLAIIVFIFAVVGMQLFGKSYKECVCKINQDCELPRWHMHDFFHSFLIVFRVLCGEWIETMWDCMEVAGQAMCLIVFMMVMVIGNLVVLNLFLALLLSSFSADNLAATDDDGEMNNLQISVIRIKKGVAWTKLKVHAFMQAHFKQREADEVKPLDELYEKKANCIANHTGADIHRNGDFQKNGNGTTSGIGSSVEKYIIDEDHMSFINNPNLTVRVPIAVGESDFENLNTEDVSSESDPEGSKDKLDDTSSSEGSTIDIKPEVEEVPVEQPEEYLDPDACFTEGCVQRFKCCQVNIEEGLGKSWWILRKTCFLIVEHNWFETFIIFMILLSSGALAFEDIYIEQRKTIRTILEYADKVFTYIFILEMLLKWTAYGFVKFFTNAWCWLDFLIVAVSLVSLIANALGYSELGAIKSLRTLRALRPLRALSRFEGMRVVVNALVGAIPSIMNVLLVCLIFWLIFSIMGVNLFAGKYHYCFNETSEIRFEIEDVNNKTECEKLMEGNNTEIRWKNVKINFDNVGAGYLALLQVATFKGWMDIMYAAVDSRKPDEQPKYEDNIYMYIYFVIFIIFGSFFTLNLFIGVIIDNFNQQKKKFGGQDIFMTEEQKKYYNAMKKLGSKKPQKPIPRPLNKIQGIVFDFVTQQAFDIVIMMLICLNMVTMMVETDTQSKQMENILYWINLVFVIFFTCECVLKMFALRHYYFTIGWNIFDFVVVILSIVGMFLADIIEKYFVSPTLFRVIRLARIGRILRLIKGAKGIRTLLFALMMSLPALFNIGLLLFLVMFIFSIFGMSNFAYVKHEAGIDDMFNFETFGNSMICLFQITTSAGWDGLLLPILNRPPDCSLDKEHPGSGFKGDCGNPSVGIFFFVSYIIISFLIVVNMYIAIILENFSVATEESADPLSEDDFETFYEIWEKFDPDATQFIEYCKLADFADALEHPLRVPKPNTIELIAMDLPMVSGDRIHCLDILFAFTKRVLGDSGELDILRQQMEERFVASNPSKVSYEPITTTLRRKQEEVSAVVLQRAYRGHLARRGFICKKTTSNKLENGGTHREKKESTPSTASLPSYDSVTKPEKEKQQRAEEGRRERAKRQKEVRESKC
T1 sequence (Q9UQD0 whole entry N1768D): as the sequence (Q9UQD0 whole entry) above, with N1768D counted along it

With `CCOC(F)(F)c1nnc2cnc(-c3cnc(OCC(F)(F)F)c(F)c3)cn12` [Compound 1, 3-(ethoxydifluoromethyl)-6-(5-fluoro-6-(2,2,2-trifluoroethoxy)pyridin-3-yl)-[1,2,4]triazolo[4,3-a]pyrazine] the IC50 [1] was 75 nM, the IC50 [2] was 109 to 180 nM and the “protection from hindlimb extension (FIG. 14E)” value [3] was “robust anticonvulsant activity”. The “Ratio to Pers. INa (Peak INa TB / persistent INa)” value ([4]; hNaV1.6) was 60, the IC50 ([4]; hNaV1.6, 0.1 Hz, resting state) was 8470 nM and the “effect on locomotor function” value ([5]; 10 mg/kg) was “no effect on locomotor function”. For the same molecule, the “total traveling distance in 30-minute sLMA test” value ([5]; 20 and 40 mg/kg p.o.) was “significantly reduced; also recorded: reductions in the distance moved”, the “sLMA distance moved, dose-response” value ([5]; Compound 1 10-40 mg/kg po) was “dose-dependent reductions in distance moved” and the “sLMA TC50 in brain (total)” value ([5]; brain) was 1899 ng/g. The “sLMA TC50 in brain (free)” value ([5]; brain, free) was 69.7 nM, the “Tolerability (sLMA) TD50” value ([5]; dose reducing sLMA by 50%) was 44 mg/kg and the “Tolerability (sLMA) TC50 (free brain)” value ([5]; free brain concentration) was 69.7 nM. The “sLMA TC50 in plasma (total)” value ([5]; plasma) was 1.553 µg/mL, the “PI (Plasma)” value ([5]; plasma TC50 (sLMA) / plasma EC50 (MES), free concentrations) was 17.3 and the “sLMA TC50 in plasma (free)” value ([5]; plasma, free) was 308.9 nM. The “Ratio to Pers. INa (Peak INa VDB / persistent INa)” value ([6]; hNaV1.6) was 2.2, the IC50 ([6]; hNaV1.6, half-inactivated (V1/2)) was 317 nM and the “intrinsic excitability, number of evoked APs” value ([7]; 0.3 μmol/L (peak INa VDB IC50)) was “significantly reduced”. The AP amplitude ([7]; +200 pA current injection, 0.3 μmol/L Compound 1, 45 μmol/L CBZ) was “without compromising” and the “number of action potentials generated / action potential firing frequency vs baseline” value ([7]; Compound 1 at 0.3 and 3 μM, wildtype mice) was “significantly reduced”.
